Legend:
[1] = test system: mCherry expressing HT-29 tumor; assay: Intravital two photon microscopy of mCherry expressing HT-29 tumor in dorsal skinfold chamber; assay type: in vivo, nude mice; conditions: 10 nmoles IV
Source text: A feature of PN design is that the fluorochrome can be selected to optimize optical properties for different applications. To image the vascular pharmacokinetic phase with two photon microscopy, PN(497)10.0 was used because its fluorescein is readily excited in the two photon mode. […] To further examine the vascular and interstitial phases, a dorsal skinfold chamber was used for the intravital, two photon microscopy of a mCherry expressing HT-29 tumor ( Figure 5B ).
Dorsal skinfold chamber (DSFC) tumors were grown in female nude mice (nu/nu; 25–30 g; 6–8 weeks old) with modifications from previously published techniques, [35]. 10^6 mCherry-HT-29 tumor cells in matrixgel (BD) were subcutaneously injected in the back of mice ∼1.5 cm left of the dorsal midline approximately halfway from the neck to the tail base. […] On days 2, 3, and 4 days after tumor DSFC implantation, when tumors were typically 3 mm in diameter, image stacks of tumor tissue were recorded under general anesthesia with Ketamine and Xylazine. […]
Multiphoton excitation was obtained through DeepSee and MaiTai Ti:sapphire lasers (Newport/Spectra-Physics) tuned to 920 and 1000 nm to excite all fluorescent probes used. […] Emitted fluorescence was detected through 460/50, 525/50, 595/50, 660/40 band-pass filters and non-descanned detectors to generate four-color images. […]

HT-29 tumor = assay: SPECT/CT and surface fluorescence imaging of the EPR effect of the HT-29 tumor; assay type: in vivo, nude mice; conditions: 48 h post-injection, mice bearing HT-29 tumors
Description: A) SPECT/CT images of two mice bearing two HT-29 tumors as a function of time after injection. […] B) Surface fluorescence imaging of two additional mice bearing the same tumor.
Female nude mice (25–30 g; 6–8 weeks old; nu/nu) were anesthetized with 2% isoflurane/O2. HT-29 or mCherry-HT-29 cells were detached, pelleted and 200 µl of cell suspension containing 10^6 cells in Matrigel (BD Bioscience) was injected subcutaneously into right and left shoulders. Tumors were allowed to grow 5–7 days before experiments.
The imaging was performed by Triumph II multimodality imaging system (Gamma Medica Ideas, LLC) comprising XSPECT with four CZT (Cadmium Zink Telluride) detectors and X-O CT with CMOS detector. SPECT data of the ^111In-labeled compound was acquired for 60 min using 5-pinhole collimators and processed with 3D-OSEM algorithm using 4 subsets and 5 iterations. 3-dimensional CT data was processed with modified Feldkamp software. […] Animals were under isoflurane anesthesia (1.5%) with O2 flow (1.5 l/min) and kept warm during the imaging with a heated animal bed.

Row | Substance | Localisation by intravital microscopy, interstitial phase ([1]; 20 h post-injection) | Localisation by intravital microscopy, vascular phase ([1]; ten minutes post-injection) | Distribution by SPECT and surface fluorescence (HT-29 tumor)
1 | (DOTA)Lys(PEG 30 kDa)-Cys(Fl) [PN(497)10.0, PEG-like Nanoprobe: 30 kDa PEG, fluorescein, DOTA peptide] | seen in the interstitium at the tumor periphery | confined to the vasculature | –
2 | (DOTA)Lys(PEG 30 kDa)-Cys(IR-783) [PN(783)10.0, PEG-like Nanoprobe: 30 kDa PEG, IR-783 fluorochrome, DOTA peptide] | – | – | seen only in the tumor

— PMC4004541, “PEG-Like Nanoprobes: Multimodal, Pharmacokinetically and Optically Tunable Nanomaterials” (PLoS ONE, 2014)
